The pKi is the Ki on a negative log10 scale, so that one unit is a factor of ten. In general, pIC50 refers to the negative decadic logarithm of the IC50, by convention in mol/L.

The target of assay [1] is T1, thymidylate synthase (TS) (Mus musculus, UniProt P07607).
T1 construct: gene Tyms; enzyme partially purified from the L1210:C15 TS-overproducing cell line
Kind of assay: inhibition of isolated mouse TS activity and inhibition kinetics (IC50 […], Kies […]). It is filed as biochemical.

Assay [2] addresses T1, thymidylate synthase (TS). Put plainly: inhibition of isolated mouse TS activity at […] (R,S)-5,10-CH2FH4. It is filed as biochemical.

pIC50, pKi: −log10 of the molar value.

T1 sequence (P07607 whole entry): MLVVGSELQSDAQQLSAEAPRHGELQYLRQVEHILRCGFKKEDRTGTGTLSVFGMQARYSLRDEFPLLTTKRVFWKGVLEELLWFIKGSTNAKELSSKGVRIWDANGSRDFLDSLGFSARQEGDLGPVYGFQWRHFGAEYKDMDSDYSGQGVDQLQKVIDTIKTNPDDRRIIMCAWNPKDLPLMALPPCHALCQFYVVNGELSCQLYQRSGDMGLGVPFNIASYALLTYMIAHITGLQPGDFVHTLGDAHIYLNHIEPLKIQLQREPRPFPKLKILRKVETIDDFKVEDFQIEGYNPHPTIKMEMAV

`C#CCN(Cc1cc2c(=O)[nH]c(C)nc2cc1Br)c1ccc(C(=O)NCc2ccccn2)cc1` [CB300179] gave a pKi in assay [1] of 6.80.

The compound `C#CCN(Cc1cc2c(=O)[nH]c(C)nc2cc1Br)c1ccc(C(=O)NCc2ccncc2)cc1` [CB300189] had a pIC50 in assay [2] of 6.60.
